Several values for one entry are separate records, joined by “and”; a condition that tells them apart may be missing. Equal entries are not always repeated. Inconclusive results and toxic doses are left out.
Tested on: L1210 leukemia ip in BDF1 mice, survival T/C
Test: NCI In Vivo Anticancer Drug Screen. Data for tumor model L1210 Leukemia (intraperitoneal) in B6D2F1 (BDF1) mice
Conditions: endpoint: mean survival time, higher = longer survival
Procedure, shortened: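 Tumor was transplanted into mice, which were then dosed with test compound or vehicle alone. Survival was recorded for each group, and the treated figure was expressed relative to the control figure.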

[1] = dose: 100.0 mg/kg/injection, schedule: Q04DX002 (ip), vehicle: Klucel (hydroxypropylcellulose) (HPC)
[2] = dose: 200.0 mg/kg/injection, schedule: Q04DX002 (ip), vehicle: Klucel (hydroxypropylcellulose) (HPC)
[3] = dose: 400.0 mg/kg/injection, schedule: Q04DX002 (ip), vehicle: Klucel (hydroxypropylcellulose) (HPC)
[4] = dose: 100.0 mg/kg/injection, schedule: Q01DX009 (ip), vehicle: Klucel (hydroxypropylcellulose) (HPC)
[5] = dose: 200.0 mg/kg/injection, schedule: Q01DX009 (ip), vehicle: Klucel (hydroxypropylcellulose) (HPC)

**Q.** What does the source list for `COC(=O)NC1CC(OC2CC(O)(C(C)=O)Cc3c(O)c4c(c(O)c32)C(=O)c2c(OC)cccc2C4=O)OC(C)C1O` (stereo not drawn)?
**A.** T/C (dose: 2.0 mg/kg/injection, schedule: Q04DX003 (ip), vehicle: water): 105 % of control; T/C (dose: 3.12 mg/kg/injection, schedule: Q01DX009 (ip), vehicle: saline with Tween-80): 103 % of control; T/C (dose: 4.0 mg/kg/injection, schedule: Q04DX003 (ip), vehicle: water): 106 % of control; T/C (dose: 6.25 mg/kg/injection, schedule: Q01DX009 (ip), vehicle: saline with Tween-80): 178 % of control; T/C (dose: 8.0 mg/kg/injection, schedule: Q04DX003 (ip), vehicle: water): 112 % of control; T/C (dose: 12.5 mg/kg/injection, schedule: Q01DX009 (ip), vehicle: saline with Tween-80): 124 % of control; T/C (dose: 16.0 mg/kg/injection, schedule: Q04DX003 (ip), vehicle: water): 109 % of control and 111 % of control; T/C (dose: 18.75 mg/kg/injection, schedule: Q04DX003 (ip), vehicle: saline with Tween-80): 112 % of control; T/C (dose: 25.0 mg/kg/injection, schedule: Q01DX009 (ip), vehicle: saline with Tween-80): 120 % of control; T/C (dose: 32.0 mg/kg/injection, schedule: Q04DX003 (ip), vehicle: water): 110 % of control; T/C (dose: 37.5 mg/kg/injection, schedule: Q04DX003 (ip), vehicle: saline with Tween-80): 118 % of control; T/C (dose: 50.0 mg/kg/injection, schedule: Q01DX009 (ip), vehicle: saline with Tween-80): 122 % of control; T/C (dose: 64.0 mg/kg/injection, schedule: Q04DX003 (ip), vehicle: water): 110 % of control; T/C (dose: 75.0 mg/kg/injection, schedule: Q04DX003 (ip), vehicle: saline with Tween-80): 118 % of control; T/C (dose: 150.0 mg/kg/injection, schedule: Q04DX003 (ip), vehicle: saline with Tween-80): 115 % of control; T/C (dose: 125.0 micrograms/kg/injection, schedule: Q04DX003 (ip), vehicle: water): 102 % of control; T/C (dose: 250.0 micrograms/kg/injection, schedule: Q04DX003 (ip), vehicle: water): 107 % of control; T/C (dose: 500.0 micrograms/kg/injection, schedule: Q04DX003 (ip), vehicle: water): 101 % of control; T/C (dose: 1000.0 micrograms/kg/injection, schedule: Q04DX003 (ip), vehicle: water): 103 % of control; T/C (dose: 2000.0 micrograms/kg/injection, schedule: Q04DX003 (ip), vehicle: water): 106 % of control

**Q.** Which results are given for `CCOC(=O)c1ccccc1C(=O)c1ccccc1`?
**A.** T/C [1]: 118 % of control; T/C [2]: 100 % of control; T/C [3]: 95 % of control

**Q.** Which results are given for `O=C1C2CC(CN3CCCCC23)C2CCCCN12` (stereo not drawn)?
**A.** T/C (dose: 75.0 mg/kg/injection, schedule: Q01DX001 (ip), vehicle: saline): 94 % of control; T/C (dose: 150.0 mg/kg/injection, schedule: Q01DX001 (ip), vehicle: saline): 103 % of control; T/C (dose: 300.0 mg/kg/injection, schedule: Q01DX001 (ip), vehicle: saline): 101 % of control

**Q.** For `COC(=O)C1C(=C(c2ccccc2)c2ccccc2)C1c1ccccc1` (stereo not drawn), which T/C (dose: 75.0 mg/kg/injection, schedule: Q04DX003 (ip), vehicle: Klucel (hydroxypropylcellulose) (HPC)) is on record?
**A.** 96 % of control

**Q.** And the T/C (dose: 100.0 mg/kg/injection, schedule: Q01DX001 (ip), vehicle: Klucel (hydroxypropylcellulose) (HPC))?
**A.** 95 % of control

**Q.** And the T/C (dose: 100.0 mg/kg/injection, schedule: Q01DX001 (ip), vehicle: steriod suspending solution)?
**A.** 93 % of control

**Q.** What about the T/C (dose: 150.0 mg/kg/injection, schedule: Q04DX003 (ip), vehicle: Klucel (hydroxypropylcellulose) (HPC)) of the same compound?
**A.** 94 % of control

**Q.** And the T/C (dose: 200.0 mg/kg/injection, schedule: Q01DX001 (ip), vehicle: Klucel (hydroxypropylcellulose) (HPC))?
**A.** 95 % of control

**Q.** What about the T/C (dose: 200.0 mg/kg/injection, schedule: Q01DX001 (ip), vehicle: steriod suspending solution) of the same compound?
**A.** 98 % of control

**Q.** What about the T/C (dose: 300.0 mg/kg/injection, schedule: Q04DX003 (ip), vehicle: Klucel (hydroxypropylcellulose) (HPC)) of the same compound?
**A.** 100 % of control

**Q.** And the T/C (dose: 400.0 mg/kg/injection, schedule: Q01DX001 (ip), vehicle: Klucel (hydroxypropylcellulose) (HPC))?
**A.** 103 % of control

**Q.** What about the T/C (dose: 400.0 mg/kg/injection, schedule: Q01DX001 (ip), vehicle: steriod suspending solution) of the same compound?
**A.** 95 % of control

**Q.** Which results are given for `O=C(Nc1ccc(C2=NCCCN2)cc1)Nc1cccc(C(=O)Nc2ccc(C3=NCCCN3)cc2)c1`?
**A.** T/C (dose: 1.25 mg/kg/injection, schedule: Q01DX Z (ip), vehicle: carboxymethylcellulose (CMC)): 101 % of control; T/C (dose: 2.5 mg/kg/injection, schedule: Q01DX Z (ip), vehicle: carboxymethylcellulose (CMC)): 106 % of control; T/C (dose: 5.0 mg/kg/injection, schedule: Q01DX Z (ip), vehicle: carboxymethylcellulose (CMC)): 109 % of control; T/C (dose: 7.5 mg/kg/injection, schedule: Q01DX Z (ip), vehicle: carboxymethylcellulose (CMC)): 112 % of control; T/C (dose: 10.0 mg/kg/injection, schedule: Q01DX Z (ip), vehicle: carboxymethylcellulose (CMC)): 162 % of control; T/C (dose: 15.0 mg/kg/injection, schedule: Q01DX Z (ip), vehicle: carboxymethylcellulose (CMC)): 171 % of control; T/C (dose: 20.0 mg/kg/injection, schedule: Q01DX Z (ip), vehicle: carboxymethylcellulose (CMC)): 190 % of control; T/C (dose: 30.0 mg/kg/injection, schedule: Q01DX Z (ip), vehicle: carboxymethylcellulose (CMC)): 118 % of control; T/C (dose: 40.0 mg/kg/injection, schedule: Q01DX Z (ip), vehicle: carboxymethylcellulose (CMC)): 86 % of control; T/C (dose: 62.0 mg/kg/injection, schedule: Q01DX Z (oral), vehicle: carboxymethylcellulose (CMC)): 102 % of control; T/C (dose: 125.0 mg/kg/injection, schedule: Q01DX Z (oral), vehicle: carboxymethylcellulose (CMC)): 105 % of control; T/C (dose: 250.0 mg/kg/injection, schedule: Q01DX Z (oral), vehicle: carboxymethylcellulose (CMC)): 102 % of control; T/C (dose: 500.0 mg/kg/injection, schedule: Q01DX Z (oral), vehicle: carboxymethylcellulose (CMC)): 107 % of control

**Q.** `CC1CCN(C(=O)NCCCCCCNC(=O)N2CCC(C)CC2)CC1` was tested. Which T/C [4] did it give?
**A.** 100 % of control

**Q.** What about the T/C [5] of the same compound?
**A.** 97 % of control

**Q.** And the T/C (dose: 400.0 mg/kg/injection, schedule: Q01DX009 (ip), vehicle: Klucel (hydroxypropylcellulose) (HPC))?
**A.** 90 % of control

**Q.** For `O=C(OCc1ccccc1CN1CCCC1)c1ccc([N+](=O)[O-])cc1Cl`, which T/C (dose: 100.0 mg/kg/injection, schedule: Q04DX002 (ip), vehicle: saline) is on record?
**A.** 107 % of control

**Q.** What about the T/C (dose: 200.0 mg/kg/injection, schedule: Q04DX002 (ip), vehicle: saline) of the same compound?
**A.** 96 % of control

**Q.** Which T/C [4] does the source give for `C1=CC=CN(c2ccccc2)C=C1` here?
**A.** 108 % of control

**Q.** What about the T/C [5] of the same compound?
**A.** 104 % of control

**Q.** What does the source list for `COCn1cnc2c(ccn2C2OC(CO)C(O)C2O)c1=O` (stereo not drawn)?
**A.** T/C (dose: 50.0 mg/kg/injection, schedule: Q01DX001 (ip), vehicle: saline): 104 % of control; T/C (dose: 100.0 mg/kg/injection, schedule: Q01DX001 (ip), vehicle: saline): 93 % of control; T/C (dose: 200.0 mg/kg/injection, schedule: Q01DX001 (ip), vehicle: saline): 106 % of control; T/C (dose: 400.0 mg/kg/injection, schedule: Q01DX001 (ip), vehicle: saline): 106 % of control

**Q.** Which results are given for `CN(C)C=NC1CCC(C(C)(C)C)CC1` (stereo not drawn)?
**A.** T/C (dose: 12.5 mg/kg/injection, schedule: Q01DX009 (ip), vehicle: Klucel (hydroxypropylcellulose) (HPC)): 96 % of control; T/C (dose: 12.5 mg/kg/injection, schedule: Q04DX003 (ip), vehicle: Klucel (hydroxypropylcellulose) (HPC)): 103 % of control; T/C (dose: 25.0 mg/kg/injection, schedule: Q01DX009 (ip), vehicle: Klucel (hydroxypropylcellulose) (HPC)): 102 % of control; T/C (dose: 25.0 mg/kg/injection, schedule: Q04DX003 (ip), vehicle: Klucel (hydroxypropylcellulose) (HPC)): 95 % of control; T/C (dose: 50.0 mg/kg/injection, schedule: Q04DX003 (ip), vehicle: Klucel (hydroxypropylcellulose) (HPC)): 93 % of control

**Q.** With `CC(=O)c1cccc(C#N)c1` as the compound, how does the T/C (dose: 100.0 mg/kg/injection, schedule: Q01DX009 (ip), vehicle: saline with Tween-80) read?
**A.** 100 % of control

**Q.** What about the T/C (dose: 200.0 mg/kg/injection, schedule: Q01DX009 (ip), vehicle: saline with Tween-80) of the same compound?
**A.** 97 % of control

**Q.** And the T/C (dose: 400.0 mg/kg/injection, schedule: Q01DX009 (ip), vehicle: saline with Tween-80)?
**A.** 105 % of control

**Q.** Which results are given for `O=C1OC(=O)C2C3CCCCC3=C3CCCCC3C12` (stereo not drawn)?
**A.** T/C [1]: 96 % of control; T/C (dose: 100.0 mg/kg/injection, schedule: Q04DX003 (ip), vehicle: Klucel (hydroxypropylcellulose) (HPC)): 101 % of control; T/C [2]: 101 % of control; T/C (dose: 200.0 mg/kg/injection, schedule: Q04DX003 (ip), vehicle: Klucel (hydroxypropylcellulose) (HPC)): 105 % of control; T/C [3]: 93 % of control; T/C (dose: 400.0 mg/kg/injection, schedule: Q04DX003 (ip), vehicle: Klucel (hydroxypropylcellulose) (HPC)): 103 % of control
